# Reference: US8088398B2, “Pharmaceutical compositions comprising fesoterodine” (UCB Pharma GmbH, priority 2006, dated 2012)
# Tests used:
# [1] = test system: healthy male and female human subjects; test: Electrocardiographic effects (QT) of Fesoterodine formulations; assay type: in vivo; details: for QTc outlier analyses vs placebo: three days of treatment
# Experimental: Fesoterodine formulations were administered orally to steady state at dosages of 4 mg and 28 mg per day to healthy male and female human subjects and the effect of such administration on QT values was determined.
# The Fesoterodine 4 mg formulation was as follows. Higher dosage levels were obtained by administering multiple 4 mg formulations.
# Steady state was determined by pharmacokinetic analysis of the Active Metabolite. Assay sensitivity was shown by a significant increase from baseline in QTcF and QTcI after multiple doses of moxifloxacin. The mean time-averaged QTcF increased by 8.6 ms after three days of treatment with moxifloxacin.
# The study design was double-blind, single-site, randomized, placebo- and positive controlled, parallel. Two hundred and fifty-six male and female subjects were assigned to one of the following four treatment groups (N=64 each; at least 50% female): • Fesoterodine 4 mg.day • Fesoterodine 28 mg/day • Moxifloxacin 400 mg/day • Placebo
# Subjects were administered 3 days of one of the above four treatments. Three 12-lead ECGs were downloaded from an H-12 flash card (data carrier) at each of the following time points on Days −1, 1, and 3: 1, 2, 3, 4, 6, 8, 10, 12, 14, 16, 18, and 23.5 hours. Plasma samples for the determination of Active Metabolite concentration (and the concentration of further metabolites) were drawn on Day 1 and Day 3 predose and at 1, 2, 3, 4, 6, 8, 12, and 23.5 hours postdose.
# [2] = test system: patients with overactive bladder; test: Efficacy trial of Fesoterodine fumarate vs tolterodine ER and placebo; assay type: in vivo, human; details: FAS with LOCF; for Number of micturitions per 24 hours, Treatment difference vs Pbo / Urge incontinence per 24 hours, Treatment difference vs Pbo: ANCOVA; for Treatment response (responder rate): end of treatment
# Experimental: The Fesoterodine formulations were as follows: […]
# The trial was conducted in 19 countries. A total of 1135 subjects were randomized and 1103 subjects were included in the full analysis set: 279 in the placebo treatment group, 265 in the 4 mg Fesoterodine treatment group, 276 in the 8 mg Fesoterodine treatment group, and 283 in the 4 mg tolterodine ER treatment group. The mean age of subjects was 57 years. A total of 81% were female and 97% were white. There were no notable differences among the treatment groups with respect to gender, race, age, or weight/BMI.
# [3] = test system: patients with overactive bladder; test: Treatment-emergent adverse events in the efficacy trial (safety set)
# Experimental: A randomized, double-blind, double dummy, placebo and active-controlled trial in adult male and female human subjects was conducted.
# For the safety set, the number of patients were: 283 in the placebo treatment group, 272 in the Fesoterodine 4 mg/day treatment group, and 287 in the Fesoterodine 8 mg/day treatment group.
# [4] = Storage in open vials at 40° C. and 75% r.H. (stability, HPLC); assay type: physicochemical
# Experimental: Fesoterodine hydrogen fumarate, a granulate containing Fesoterodine hydrogen fumarate and xylitol in a weight-ratio of 10:90, as well as a composition comprising Fesoterodine hydrogen fumarate and xylitol were stored in open vials (25 ml brown glass bottles) for up to 12 weeks at 40° C. and 75% r.H. The results are shown in Table 4 below.
# The degradation of Fesoterodine was measured by HPLC. The following conditions were used to measure degradation products in the stability testing of Fesoterodine hydrogen fumarate: • Column: Polaris C18-Ether, 3 μm, 250 mm×4.6 mm • Eluent A: Water/methanesulfonic acid 1000:0.5 (v/v) • Eluent B: Acetonitrile/methanesulfonic acid 1000:0.5 (v/v) • Typical gradient profile:
# • Column temperature: 35° C. • Flow rate: 1.2 mL/min • Detection wavelength: 220 nm • Injection volume: 20 μL
# The retention time of the Active Metabolite was about 4.1 min (rrt=0.50); response factor: 1.4.
# Evaluation of the HPLC results was by the area percent method.
# A comparison of the observed average purity of a Fesoterodine-containing granulate and a corresponding composition as compared to pure Fesoterodine after open storage under stress conditions is set out in Table 4, wherein values are indicated in % of Fesoterodine hydrogen fumarate remaining at various times.
# [5] = Stability of blends of Fesoterodine with sugar alcohols / lactose; assay type: physicochemical
# Experimental: Blends of Fesoterodine hydrogen fumarate with xylitol, sorbitol, mannitol and maltitol were stored for 6 weeks and 3 months in closed vials at 25° C. and 60% r.H., in closed vials at 40° C. and 75% r.H., or in open vials at 40° C. and 75% r.H. and then tested for stability by measuring the purity of Fesoterodine. The initial purity of the Fesoterodine in the blends was 99.7%.
# [6] = Degradation of Fesoterodine during tablet production and storage; assay type: physicochemical
# Experimental: Granulates of Fesoterodine with various sugars and sugar alcohols were produced as described in Example 1. These granulates were then used to produce 4 mg tablets according to Example 2.1 and with the composition given as “Example C” in Table 1, as well as wherein the xylitol was substituted with mannitol, maltitol, sorbitol, or lactose.
# [7] = 4 mg/day, N = 272, listed as Feso
# [8] = 8 mg/day, N = 287, listed as Feso
compound,measurement,setting,value
"CC(C)C(=O)Oc1ccc(CO)cc1[C@H](CCN(C(C)C)C(C)C)c1ccccc1 [Fesoterodine, 2-[(1R)-3-(diisopropylamino)-1-phenylpropyl]-4-(hydroxymethyl)phenyl isobutyrate]",mean time-averaged QTcF decrease,"[1]; 4 mg Fesoterodine per day, after three days of treatment",4.6 ms
same,mean time-averaged QTcF decrease,"[1]; 28 mg Fesoterodine per day, after three days of treatment",5.0 ms
same,effect on myocardial repolarization (QTcF and QTcI vs placebo),[1]; multiple 4 mg and 28 mg doses,did not exert an effect on myocardial repolarization
same,QTc outlier analyses vs placebo,[1],no differences between the Fesoterodine treatment groups and placebo
same,"Number of micturitions per 24 hours, Treatment difference vs Pbo",[2]; 4 mg vs Pbo,−0.81
same,"Urge incontinence per 24 hours, Treatment difference vs Pbo",[2]; 4 mg vs Pbo,−0.81
same,"Number of micturitions per 24 hours, ANCOVA Endpoint LS Mean",[2]; 4 mg,−1.76
same,"Urge incontinence per 24 hours, ANCOVA Endpoint LS Mean",[2]; 4 mg,−1.95
same,"Number of micturitions per 24 hours, change from baseline at end of treatment, Mean (SD)",[2]; 4 mg/day,−1.74 (2.66)
same,"Urge incontinence per 24 hours, change from baseline at end of treatment, Mean (SD)",[2]; 4 mg/day,−1.44 (2.75)
same,Treatment response (responder rate),[2]; 4 mg/day,75%
same,"Number of micturitions per 24 hours, Treatment difference vs Pbo",[2]; 8 mg vs Pbo,−0.93
same,"Urge incontinence per 24 hours, Treatment difference vs Pbo",[2]; 8 mg vs Pbo,−1.08
same,"Number of micturitions per 24 hours, ANCOVA Endpoint LS Mean",[2]; 8 mg,−1.88
same,"Urge incontinence per 24 hours, ANCOVA Endpoint LS Mean",[2]; 8 mg,−2.22
same,"Number of micturitions per 24 hours, change from baseline at end of treatment, Mean (SD)",[2]; 8 mg/day,−1.94 (3.15)
same,"Urge incontinence per 24 hours, change from baseline at end of treatment, Mean (SD)",[2]; 8 mg/day,−1.81 (2.35)
same,Treatment response (responder rate),[2]; 8 mg/day,79%
same,incidence of blurred vision,[3]; 4 mg/day,1%
same,incidence of dry throat,[3]; 4 mg/day,1%
same,incidence of urinary retention,[3]; 4 mg/day,1%
same,"Any adverse event, subjects (%)","[3]; 4 mg/day, N = 272",50%
same,"Any adverse event, subjects n","[3]; 4 mg/day, N = 272",135
same,"Constipation, subjects (%)","[3]; 4 mg/day, N = 272",3%
same,"Constipation, subjects n","[3]; 4 mg/day, N = 272",9
same,"Fatigue, subjects (%)","[3]; 4 mg/day, N = 272",(<1) %
same,"Fatigue, subjects n","[3]; 4 mg/day, N = 272",1
same,"Headache, subjects (%)","[3]; 4 mg/day, N = 272",(4) %
same,"Headache, subjects n","[3]; 4 mg/day, N = 272",12
same,"Keratoconjunctivitis sicca, subjects (%)","[3]; 4 mg/day, N = 272",2%
same,"Keratoconjunctivitis sicca, subjects n","[3]; 4 mg/day, N = 272",6
same,"Mouth dry, subjects (%)","[3]; 4 mg/day, N = 272",22%
same,"Mouth dry, subjects n","[3]; 4 mg/day, N = 272",59
same,"Nasopharyngitis, subjects (%)","[3]; 4 mg/day, N = 272",(3) %
same,"Nasopharyngitis, subjects n","[3]; 4 mg/day, N = 272",8
same,"Urinary tract infection, subjects (%)","[3]; 4 mg/day, N = 272",(3) %
same,"Urinary tract infection, subjects n","[3]; 4 mg/day, N = 272",8
same,"Any adverse event, subjects (%)",[3]; [7],(50) %
same,"Constipation, subjects (%)",[3]; [7],(3) %
same,"Keratoconjunctivitis sicca, subjects (%)",[3]; [7],(2) %
same,"Mouth dry, subjects (%)",[3]; [7],(22) %
same,incidence of blurred vision,[3]; 8 mg/day,1%
same,incidence of dry throat,[3]; 8 mg/day,3%
same,incidence of urinary retention,[3]; 8 mg/day,1%
same,"Any adverse event, subjects (%)","[3]; 8 mg/day, N = 287",58%
same,"Any adverse event, subjects n","[3]; 8 mg/day, N = 287",167
same,"Constipation, subjects (%)","[3]; 8 mg/day, N = 287",5%
same,"Constipation, subjects n","[3]; 8 mg/day, N = 287",13
same,"Fatigue, subjects (%)","[3]; 8 mg/day, N = 287",(<1) %
same,"Fatigue, subjects n","[3]; 8 mg/day, N = 287",1
same,"Headache, subjects (%)","[3]; 8 mg/day, N = 287",(2) %
same,"Headache, subjects n","[3]; 8 mg/day, N = 287",7
same,"Keratoconjunctivitis sicca, subjects (%)","[3]; 8 mg/day, N = 287",4%
same,"Keratoconjunctivitis sicca, subjects n","[3]; 8 mg/day, N = 287",12
same,"Mouth dry, subjects (%)","[3]; 8 mg/day, N = 287",34%
same,"Mouth dry, subjects n","[3]; 8 mg/day, N = 287",97
same,"Nasopharyngitis, subjects (%)","[3]; 8 mg/day, N = 287",(2) %
same,"Nasopharyngitis, subjects n","[3]; 8 mg/day, N = 287",5
same,"Urinary tract infection, subjects (%)","[3]; 8 mg/day, N = 287",(3) %
same,"Urinary tract infection, subjects n","[3]; 8 mg/day, N = 287",9
same,"Any adverse event, subjects (%)",[3]; [8],(58) %
same,"Constipation, subjects (%)",[3]; [8],(5) %
same,"Keratoconjunctivitis sicca, subjects (%)",[3]; [8],(4) %
same,"Mouth dry, subjects (%)",[3]; [8],(34) %
same,% of Fesoterodine hydrogen fumarate remaining (purity),[4]; 1 week,98.56%
same,% of Fesoterodine hydrogen fumarate remaining (purity),[4]; 2 weeks,97.67%
same,% of Fesoterodine hydrogen fumarate remaining (purity),[4]; 4 weeks,94.32%
same,% of Fesoterodine hydrogen fumarate remaining (purity),[4]; 12 weeks,about 50%
same,% of Fesoterodine hydrogen fumarate remaining (purity),"[4]; 12 weeks, listed as Fesoterodine (pure)",50.39%
same,% of Fesoterodine hydrogen fumarate remaining (purity),[4]; Initial,98.96%
same,Purity of Fesoterodine in blends,"[5]; closed vial 25° C., 60% r.H., 3 months",99.7%
same,Purity of Fesoterodine in blends,"[5]; closed vial 25° C., 60% r.H., 6 weeks",99.6%
same,Purity of Fesoterodine in blends,"[5]; closed vial 40° C., 75% r.H., 6 weeks",99.3%
same,Purity of Fesoterodine in blends,"[5]; open vial 40° C., 75% r.H., 3 months",53.1%
same,Purity of Fesoterodine in blends,"[5]; open vial 40° C., 75% r.H., 6 weeks",96.3%
"Cc1ccc(O)c([C@H](CCN(C(C)C)C(C)C)c2ccccc2)c1 [Tolt, tolterodine, reference compound]","Number of micturitions per 24 hours, Treatment difference vs Pbo",[2]; 4 mg vs Pbo,−0.78
same,"Urge incontinence per 24 hours, Treatment difference vs Pbo",[2]; 4 mg vs Pbo,−0.60
same,"Number of micturitions per 24 hours, ANCOVA Endpoint LS Mean",[2]; 4 mg,−1.73
same,"Urge incontinence per 24 hours, ANCOVA Endpoint LS Mean",[2]; 4 mg,−1.74
same,"Number of micturitions per 24 hours, change from baseline at end of treatment, Mean (SD)",[2]; 4 mg/day,−1.69 (2.42)
same,"Urge incontinence per 24 hours, change from baseline at end of treatment, Mean (SD)",[2]; 4 mg/day,−1.43 (2.20)
same,Treatment response (responder rate),[2]; 4 mg/day,72%
"COc1c(N2C[C@@H]3CCCN[C@@H]3C2)c(F)cc2c(=O)c(C(=O)O)cn(C3CC3)c12 [moxifloxacin, reference compound]",mean time-averaged QTcF increase,"[1]; moxifloxacin 400 mg/day, after three days of treatment",8.6 ms
same,QTc outlier analyses vs placebo,[1],a higher incidence of QTc outliers
maltitol,hydrolyzation products and total degradation products in tablets prepared with the granulates,[6],1.1-1.7%
